How the values were obtained:
[1] = system: lung cancer cells NCI-H358; assay: Cell proliferation assay, CELL TITER-GLO (CTG) luminescence, NCI-H358; format: cell-based; details: cultured for 96 hrs
Description: (§1) Example B: Cell Proliferation Assay
(§2) The effects of the compounds of the invention on the proliferation of leukemia cells MV-4-11 and lung cancer cells NCI-H358 were evaluated using in vitro cell assays. The detection method used in the experiment is the CELL TITER-GLO (CTG) luminescence method, which can detect the number of viable cells by quantifying ATP. Because ATP participates in a variety of enzymatic reactions in vivo, it is an indicator of the metabolism of living cells, and its content directly reflects the number and state of cells. During the experiment, CellTiter-Glo™ reagent was added to the cell culture medium to measure the luminescence value. The value is proportional to the amount of ATP, and ATP is positively related to the number of living cells, so the cell viability can be examined by detecting the ATP content.
(§3) experiment procedure: • (1) Cell plating: • Take a bottle of MV-4-11 cells in logarithmic growth phase, resuspend the cells by centrifugation and count them. After adjusting the cell density, they were seeded into a 96-well plate (Corning #3917). After culturing in a 5% CO2 incubator for 24 hrs, the compound of the present invention was added for treatment; • Take a bottle of NCI-H358 cells in logarithmic growth phase, digest and resuspend the cells, count them, adjust the cell density, and inoculate them into a 96-well transparent ultra-low adsorption cell culture plate (Corning #3474), inoculate 2000 cells per well. The plate was placed in an incubator at 37° C. and 5% CO2 for 24 hrs, and then the compound of the present invention was added for treatment; • (2) Cell compound treatment: • An appropriate amount of the compound of the present invention was prepared for cell treatment. The final concentration of the compound from high to low was 1000 nM, 333.3 nM, 111.1 nM, 37.04 nM, 12.35 nM, 4.115 nM, 1.372 nM, 0.4572 nM, 0.1524 nM, and 0 nM. The plate was placed in a 37° C., 5% CO2 incubator for 120 hrs. Only adding medium without cell wells was set as the blank group; the group with compound concentration of 0 nM was the zero-adjusting group. • (3) CTG detection: • After NCI-H358 cells were cultured for 96 hrs, 50 µL of CellTiter-Glo® Luminescent Cell Viability Assay solution was added to each well, shaken gently for 2 mins, and incubated at room temperature for 10 mins. The cell reaction system was transferred to a white-bottomed 96-well plate. Read the detection value of each well on a multi-function microplate reader. • After MV-4-11 cells were cultured for 120 hrs, 50 µL of CellTiter-Glo® Luminescent Cell Viability Assay solution was added to each well, gently shaken for 2 mins, and incubated at room temperature for 10 mins. Check the value. • (4) Data analysis: • Calculate the inhibition rate from the luminescence value readings, • [formula]
(§4) The log(inhibitor) vs. response-Variable slope of GraphPad Prism was fitted to dose-response curves and IC50s of compounds that inhibited cell proliferation were calculated.

leukemia cells MV-4-11 = assay: Cell proliferation assay, CELL TITER-GLO (CTG) luminescence, MV-4-11; format: cell-based
Description: as §1, §2, §3, §4

SHP2 = SHP2 (Homo sapiens (Human), UniProt Q06124); assay: SHP2 allosteric inhibitory enzyme activity assay (DiFMUP fluorescence); format: biochemical; details: read-out: SHP2 enzymatic activity IC50
Excerpt: Example A: SHP2 Allosteric Inhibitory Enzyme Activity Assay
SHP2 is allosterically activated by binding of a bis-tyrosyl-phosphorylated peptide to its Src homology 2 (SH2) domain. This later activation step results in the release of the autoinhibitory interface of SHP2, which in turn activates the SHP2 protein tyrosine phosphatase (PTP) and is available for substrate recognition and reaction catalysis. The catalytic activity of SHP2 was monitored using the surrogate DiFMUP in a rapid fluorescence assay format.
experiment procedure: • (1) Compound preparation: • The compounds of the present invention (10 mM stock solution) were diluted to appropriate times with 100% DMSO, and the final test concentrations of the compounds of the present invention were 10 µM, 3.3333 µM, 1.1111 µM, 0.3704 µM, 0.1235 µM, 0.0412 µM, 0.0137 µM, 0.0046 µM, 0.0015 µM, 0.00 µM; • (2) Prepare the enzyme reaction working solution: • Perform SHP2 enzymatic assays in 96-well black polystyrene plates (flat bottom, low flange, non-binding surface) (Perki Elmer, Cat#6005270) at room temperature using a final reaction volume of 50 µL and the following assay buffer conditions: 60 mM HEPES, 75 mM NaCl, 75 mM KCl, 0.05% BRIJ-35, 1 mM EDTA, 5 mM DTT. • (3) Enzyme-catalyzed reaction and data monitoring: • Add the compound of the present invention to the corresponding 96-well plate, and set the blank test well without compound and enzyme only with buffer. Thaw SHP2 Activating Peptide (IRS1_pY1172(dPEG8)pY1222) on ice, add 25 µM to each well, then add 0.2 ng of SHP2 protein sample to the corresponding well plate and incubate at room temperature for 1 hour. The surrogate substrate DiFMUP (Invitrogen, Cat #D6567) was added to the reaction and allowed to react for 1 hour at room temperature. Fluorescence signals were monitored using a microplate reader (Envision, Perki Elmer) using excitation and emission wavelengths of 340 nm and […], respectively. • (4) Data analysis: • Calculation Formula: • [formula]
Among them: Conversion_sample is the conversion rate reading of the sample; Conversion_min is the average value of blank control wells, representing the conversion rate readings of wells without enzymatic activity; Conversion_max is the mean ratio of positive control wells, representing the conversion rate readings of wells without compound inhibition. The log(inhibitor) vs. response-Variable slope of the analysis software GraphPad Prism was used to fit the dose-response curve, and the IC50 value of the compound for the enzymatic activity was calculated.

[2] = Homo sapiens, NCI-H358, ultra-low adsorption plate
[3] = Homo sapiens, MV4-11, cultured for 120 hrs

SMILES | IC50 [1, 2] | IC50 (leukemia cells MV-4-11; [3]) | IC50 (SHP2) | IC50 ([1]; ultra-low adsorption plate) | IC50 (leukemia cells MV-4-11; cultured for 120 hrs)
CC(=O)N1CCN(c2ccc(OCC#Cc3cnc(N4CCC5(CC4)Cc4ccccc4[C@H]5N)c(CO)n3)cc2)CC1 [Compound A21, (S)-1-(4-(4-(3-(5-(1-amino-1,3-dihydrospiro [indene-2,4 ‘-piperidine]-1′-yl) -6-(hydroxymethyl)pyrazin-2-yl)prop-2-yn-1-yl)oxy)piperazin-1-yl)ethane-1-one] | – | – | 2.1 nM | 12 nM | 11 nM
COc1ccc(NCC#Cc2cnc(N3CCC4(CC3)Cc3ccccc3[C@H]4N)c(CO)n2)cc1OC [Compound A47, (S)-(3-(1-amino-1,3-dihydrospiro [indene-2,4′-piperidin]-1′-yl)-6-(3-((3,4-dimethoxyphenyl)amino)prop-1-yn-1-yl)pyrazin-2-yl)] | – | – | 4 nM | 48 nM | 17 nM
N[C@@H]1c2ccccc2CC12CCN(c1ncc(C#CCOc3ccc4c(c3)CCNC4=O)nc1CO)CC2 [Compound A52, (S)-6-((3-(5-(1-amino-1,3-dihydrospiro[indene-2,4′-piperidin]-1′-yl)-6-(hydroxymethyl)pyrazin-2-yl)prop-2-yn-1-yl)oxy)-3,4-dihydroisoquinolin-1(2H)-one] | 4.6 nM | 1.5 nM | 1.6 nM | – | –
N[C@@H]1c2ccccc2CC12CCN(c1ncc(C#CCNc3ccc(C(F)(F)F)nc3)nc1CO)CC2 [Compound A63, (S)-(3-(1-amino-1,3-dihydrospiro[indene-2,4′-piperidin]-1′-yl)-6-(3-( (6-(trifluoromethyl)pyridin-3-yl)amino)prop-1-yn-1-yl)pyrazin-2-yl)methanol] | 36 nM | 11 nM | 5 nM | – | –
CC(=O)Nc1cccc(NCC#Cc2cnc(N3CCC4(CC3)Cc3ccccc3[C@H]4N)c(CO)n2)c1 [Compound A65, (S)-N-(3-((3-(5-(1-amino-1,3-dihydrospiro[indene-2,4′-piperidin]-1′-yl)-6-(hydroxylmethyl)pyrazin-2-yl)prop-2-yn-1-yl)amino)phenyl)a cetamide] | 25 nM | 2.8 nM | 3.5 nM | – | –
CNc1ncc(OCC#Cc2cnc(N3CCC4(CC3)Cc3ccccc3[C@H]4N)c(CO)n2)cn1 [Compound A68, (S)-(3-(1-amino-1,3-dihydrospiro[indene-2,4′-piperidin]-1′-yl)-6-(3-( (2-(methylAmino)pyrimidin-5-yl)oxy)prop-1-yn-1-yl)pyrazin-2-yl) methanol] | 26 nM | 8.6 nM | 2.1 nM | – | –
N[C@@H]1c2ccccc2CC12CCN(c1ncc(C#CCOc3ccc(O)cn3)nc1CO)CC2 [Compound A75, (S)-6-((3-(5-(1-amino-1,3-dihydrospiro[indene-2,4′-piperidin]-1′-yl)-6-(hydroxymethyl)pyrazin-2-yl)prop-2-yn-1-yl)oxy)pyridin-3-ol] | 78 nM | 7.3 nM | 7.8 nM | – | –
Cn1nccc1Nc1ccc(OCC#Cc2cnc(N3CCC4(CC3)Cc3ccccc3[C@H]4N)c(CO)n2)cc1 [Compound A77] | – | – | 5.9 nM | 36 nM | 11 nM

Second part, led by results:

IC50 [1, 2] | IC50 (leukemia cells MV-4-11; [3]) | IC50 (SHP2) | SMILES | IC50 ([1]; ultra-low adsorption plate) | IC50 (leukemia cells MV-4-11; cultured for 120 hrs)
3.8 nM | 2.1 nM | 3.3 nM | CC(=O)Nc1ccc(OCC#Cc2cnc(N3CCC4(CC3)Cc3ccccc3[C@H]4N)c(CO)n2)cc1 [Compound A08, (S)-N-(4-((3-(5-(1-amino-1,3-dihydrospiro [indene-2,4′-piperidine]-1′-yl) -6-(hydroxymethyl)pyrazin-2-yl)prop-2-yn-1-yl)oxy)phenyl) acetamide] | – | –
4.9 nM | 2.6 nM | 0.9 nM | COc1ccc(OCC#Cc2cnc(N3CCC4(CC3)Cc3ccccc3[C@H]4N)c(CO)n2)cc1 [Compound A09, (S)-(3-(1-amino-1,3-dihydrospiro [indene-2,4′-piperidine]-1′-yl)-6-(3-(4-methoxyphenoxy)prop-1-yn-1-yl)pyrazin-2-yl) methanol] | – | –
8.5 nM | 6.7 nM | 1.4 nM | COc1cc(OCC#Cc2cnc(N3CCC4(CC3)Cc3ccccc3[C@H]4N)c(CO)n2)ccn1 [Compound A49, (S)-(3-(1-amino-1,3-dihydrospiro[indene-2,4′-piperidin]-1′-yl)-6-(3-((2-methoxypyridine-4-yl)oxy)prop-1-yn-1-yl)pyrazin-2-yl)methanol] | – | –
27 nM | 8.1 nM | 3.3 nM | N#Cc1cccc(OCC#Cc2cnc(N3CCC4(CC3)Cc3ccccc3[C@H]4N)c(CO)n2)c1 [Compound A53, (S)-3-((3-(5-(1-amino-1,3-dihydrospiro[indene-2,4′-piperidin]-1′-yl)-6-(hydroxymethyl)pyrazin-2-yl)prop-2-yn-1-yl)oxy)benzonitrile] | – | –
4 nM | 0.8 nM | 1.5 nM | COc1ccc2c(c1)[C@@H](N)C1(CCN(c3ncc(C#CCOc4ccc(C(N)=O)cc4)nc3CO)CC1)C2 [Compound A58, (S)-4-((3-(5-(1-amino-6-methoxy-1,3-dihydrospiro[indene-2,4′-piperidin]-1′-yl)-6-(hydroxymethyl)pyrazin-2-yl)prop-2-yn-1-yl)oxy)benzamide] | – | –
3.4 nM | 1.1 nM | 3.1 nM | Cc1nc2cc(OCC#Cc3cnc(N4CCC5(CC4)Cc4ccccc4[C@H]5N)c(CO)n3)ccc2[nH]1 [Compound A73, (S)-(3-(1-amino-1,3-dihydrospiro[indene-2,4′-piperidin]-1′-yl)-6-(3-( (2-methyl-1H-Benzo[d]imidazol-5-yl)oxy)prop-1-yn-1-yl)pyrazin-2-yl)methanol] | – | –
6.4 nM | 1.7 nM | 1.1 nM | Cc1cc(OCC#Cc2cnc(N3CCC4(CC3)Cc3ccccc3[C@H]4N)c(CO)n2)ccc1C(N)=O [Compound A74, (S)-4-((3-(5-(1-amino-1,3-dihydrospiro[indene-2,4′-piperidin]-1′-yl)-6-(hydroxymethyl)pyrazin-2-yl)prop-2-yn-1-yl)oxy)-2-methylbenzamide] | – | –
– | – | 3.4 nM | N[C@@H]1c2ccccc2CC12CCN(c1ncc(C#CCOc3ccc(C(=O)NC4CC4)cc3)nc1CO)CC2 [Compound A76, (S)-4-((3-(5-(1-amino-1,3-dihydrospiro[indene-2,4′-piperidin]-1′-yl)-6-(hydroxymethyl)pyrazin-2-yl)prop-2-yn-1-yl)oxy)-N-cyclopropyl benzamide] | 19 nM | 3.3 nM
